Bounds are passed on as bounds.

For the first test, the target named is T1, human full-length HSP90 (Homo sapiens, UniProt P08238).
T1 construct: E. coli expressed human full-length HSP90 protein, purified >95%; made in house; host or cells: E. coli
T1 sequence (P08238 whole entry): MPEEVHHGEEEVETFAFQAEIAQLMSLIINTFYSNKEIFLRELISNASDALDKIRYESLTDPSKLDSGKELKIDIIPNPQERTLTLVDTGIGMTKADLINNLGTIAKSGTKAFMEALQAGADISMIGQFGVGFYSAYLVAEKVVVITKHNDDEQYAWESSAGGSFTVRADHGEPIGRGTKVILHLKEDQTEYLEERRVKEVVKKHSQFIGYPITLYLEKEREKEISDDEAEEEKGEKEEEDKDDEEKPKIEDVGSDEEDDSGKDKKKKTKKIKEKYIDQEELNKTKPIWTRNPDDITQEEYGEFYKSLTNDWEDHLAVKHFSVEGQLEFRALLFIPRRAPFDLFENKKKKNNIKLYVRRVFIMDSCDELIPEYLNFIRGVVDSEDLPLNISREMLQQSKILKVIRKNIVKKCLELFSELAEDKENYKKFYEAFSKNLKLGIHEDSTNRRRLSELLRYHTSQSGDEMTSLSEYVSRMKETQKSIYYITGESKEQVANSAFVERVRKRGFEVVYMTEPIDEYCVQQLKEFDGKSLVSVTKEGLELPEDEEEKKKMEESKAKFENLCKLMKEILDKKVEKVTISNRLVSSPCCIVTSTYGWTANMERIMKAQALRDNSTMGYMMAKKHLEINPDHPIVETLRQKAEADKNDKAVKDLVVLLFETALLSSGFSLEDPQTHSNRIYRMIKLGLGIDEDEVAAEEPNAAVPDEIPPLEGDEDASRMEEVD
Briefly: Fluorescence polarization assay (competitive displacement of probe RBT0051001-FAM from HSP90). The format is binding. Particulars: Table 1; read-out: Hsp90 FP IC50. The text has this:
Fluorescence Polarization Assay
Fluorescence polarization {also known as fluorescence anisotropy} measures the rotation of a fluorescing species in solution, where the larger molecule the more polarized the fluorescence emission. When the fluorophore is excited with polarized light, the emitted light is also polarized. The molecular size is proportional to the polarization of the fluorescence emission.
The fluoroscein-labelled probe —RBT0051001-FAM—
binds to HSP90 {full-length human, full-length yeast or N-terminal domain HSP90} and the anisotropy {rotation of the probe:protein complex} is measured.
Test compound is added to the assay plate, left to equilibrate and the anisotropy measured again. Any change in anisotropy is due to competitive binding of compound to HSP90, thereby releasing probe.
Chemicals are of the highest purity commercially available and all aqueous solutions are made up in AR water. • 1) Costar 96-well black assay plate #3915 • 2) Assay buffer of (a) 100 mM Tris pH7.4; (b) 20 mM KCl; (c) 6 mM MgCl2. Stored at room temperature. • 3) BSA (bovine serum albumen) 10 mg/ml (New England Biolabs # B9001S) • 4) 20 mM probe in 100% DMSO stock concentration. Stored in the dark at RT. Working concentration is 200 nM diluted in AR water and stored at 4° C. Final concentration in assay 80 nM. • 5) E. coli expressed human full-length HSP90 protein, purified >95% (see, e.g., Panaretou et al., 1998) and stored in 50 μL aliquots at −80° C.
• 1) Add 100 μl 1× buffer to wells 11A and 12A (=FP BLNK) • 2) Prepare assay mix—all reagents are kept on ice with a lid on the bucket as the probe is light-sensitive.
• 3) Aliquot 100 μl assay mix to all other wells • 4) Seal plate and leave in dark at room temp for 20 minutes to equilibrate Compound Dilution Plate—1×3 dilution series • 1) In a clear 96-well v-bottom plate-{# VWR 007/008/257} add 10 μl 100% DMSO to wells B1 to H11 • 2) To wells A1 to A11 add 17.5 μl 100% DMSO • 3) Add 2.5 μl cpd to A1. This gives 2.5 mM {50×} stock cpd-assuming cpds 20 mM. • 4) Repeat for wells A2 to A10. Control in columns 11 and 12. • 5) Transfer 5 μl from row A to row B—not column 12. Mix well. • 6) Transfer 5 μl from row B to row C. […] In column 11 {provides standard curve} only add compound B11-H11. Add 2 μl of 100 mM standard cpd to wells B12-H12 {is positive control} • 13) The Z′ factor is calculated from zero controls and positive wells. It typically gives a value of 0.7-0.9.
The compounds tested in the above assay were assigned to one of two activity ranges, namely A=<10 μM; B=>10 μM, and those assignments are reported above.
For `CCCNC(=O)c1ccc(C)c(-c2nc(N)nc3sc(C(=O)NOC)cc23)c1` [Example 17], the IC50 is less than 10 µM. On to `CONC(=O)c1cc2c(-c3ccc(Cl)cc3Cl)nc(N)nc2s1` [Example 14], for which the IC50 was less than 10 µM.

As to `CCONC(=O)c1cc2c(-c3ccc(Cl)cc3Cl)nc(N)nc2s1` [Example 15], the IC50 was less than 10 µM.

Take `CNNC(=O)c1cc2c(-c3ccc(Cl)cc3Cl)nc(N)nc2s1` [Example 16]: the IC50 was less than 10 µM.

Still in this test, the particulars now being: activity range stated in each example; read-out: activity in the fluorescence polarization assay.
With `CCOC(=O)/C=C/c1cc2c(-c3cc(OCCN(CC)CC)c(Cl)cc3Cl)nc(N)nc2s1` [Example 41, 3-{2-Amino-4-[2,4-Dichloro-5-(2-diethylamino-ethoxy)-phenyl]-thieno[2,3-d]pyrimidin-6-yl}-acrylic acid ethyl ester], the IC50 was less than 10 µM. The same measure, in the same setting: the same measure for `Nc1nc(-c2ccc(Cl)cc2Cl)c2cc(-c3n[nH]c(N)n3)sc2n1` [Example 38, 6-(5-Amino-1H-[1,2,4]triazol-3-yl)-4-(2,4-dichloro-phenyl)-thieno[2,3-d]pyrimidin-2-ylamine]: less than 10 µM. Consider `N#Cc1cc2c(-c3cc(OCc4ccccc4)c(Cl)cc3Cl)nc(N)nc2s1` [Example 28, 2-amino-4-(5-benzyloxy-2,4-dichloro-phenyl)-thieno[2,3-d]pyrimidine-6-carbonitrile], for which the IC50 was less than 10 µM. Same read-out and setting: the result for `Nc1nc(-c2ccc(Cl)cc2Cl)c2cc(CO)sc2n1` [Example 6, [2-Amino-4-(2,4-dichloro-phenyl)-thieno[2,3-d]pyrimidin-6-yl]methanol] reads less than 10 µM. The same measure, in the same setting: the same measure for `CCN(CC)CCOc1cc(-c2nc(N)nc3sc(C(=O)O)cc23)c(Cl)cc1Cl` [Example 36, 2-Amino-4-[2,4-dichloro-5-(2-diethylamino-ethoxy)-phenyl]-thieno[2,3-d]pyrimidine-6-carboxylic acid]: less than 10 µM; for `CCN(CC)CCOc1cc(-c2nc(N)nc3sc(/C=C/C(C)=O)cc23)c(Cl)cc1Cl` [Example 34, 4-{2-Amino-4-[2,4-dicholoro-5-(2-diethylamino-ethoxy)-phenyl]thieno[2,3-d]pyrimidine-6-yl}-but-3-en-2-one]: less than 10 µM; for `Nc1nc(-c2ccc(Cl)cc2Cl)c2cc(C(=O)Nn3cnnc3)sc2n1` [Example 13, 2-Amino-4-(2,4-dichloro-phenyl)-thieno[2,3-d]pyrimidine-6-carboxylic acid [1,2,4]triazol-4-ylamide]: less than 10 µM. As to `Cc1ccc(-c2nc(N)nc3sccc23)c(C)c1` [Example 27, 4-(2,4-Dimethyl-phenyl)-thieno[2,3-d]pyrimidine-2-ylamine], the IC50 is less than 10 µM.

As to `CN1CCN(NC(=O)c2cc3c(-c4ccc(Cl)cc4Cl)nc(N)nc3s2)CC1` [Example 12, 2-Amino-4-(2,4-dichloro-phenyl)-thieno[2,3-d]pyrimidine-6-carboxylic acid (4-methyl-piperazin-1-yl) amide], the IC50 was less than 10 µM. On the same count and under the same terms, the result for `CCC(O)(CC)c1cc2c(-c3ccc(Cl)cc3Cl)nc(N)nc2s1` [Example 4, 3-[2-Amino-4-(2,4-dichloro-phenyl)-thieno[2,3-d]pyrimidin-6-yl]-pentan-3-ol] reads less than 10 µM. Consider `CCN(CC)CCOc1cc(-c2nc(N)nc3sc(/C(N)=N/O)cc23)c(Cl)cc1Cl` [Example 30, 2-Amino-4-[2,4-dichloro-5-(2-diethylamino-ethoxy)-phenyl]-N-hydroxy-thieno[2,3-d]pyrimidine-6-carboxamidine], for which the IC50 is less than 10 µM.

Consider `CCC(=O)c1cc2c(-c3ccc(Cl)cc3Cl)nc(N)nc2s1` [Example 8, 1-[2-Amino-4-(2,4-dichloro-phenyl)-thieno[2,3-d]pyrimidine-6-yl]-propan-1-one], for which the IC50 was less than 10 µM. On to `CC(=O)Nc1nc(C)c(-c2cc3c(-c4ccc(Cl)cc4Cl)nc(N)nc3s2)[nH]1` [Example 22, N-{5-[2-Amino-4-(2,4-dichloro-phenyl)-thieno[2,3-d]pyrimidin-6-yl]-4-methyl-1H-imidazol-2-yl}-acetamide], for which the IC50 was less than 10 µM. On the same count and under the same terms, the same measure for `Nc1nc(-c2cc(OCc3ccccc3)c(Cl)cc2Cl)c2cc(C(=O)O)sc2n1` [Example 37, 2-Amino-4-[5-benzyloxy-2,4-dichloro-phenyl]-thieno[2,3-d]pyrimidine-6-carboxylic acid]: less than 10 µM; for `Nc1nc(-c2ccc(Cl)cc2Cl)c2cc(-c3cnc[nH]3)sc2n1` [Example 24, 4-(2,4-Dichloro-phenyl)-6-(3H-imidazol-4-yl)-thieno[2,3-d]pyrimidin-2-ylamine]: less than 10 µM; for `CCCNCc1cc2c(-c3ccc(C)cc3C)nc(N)nc2s1` [Example 18, 4-(2,4-dimethyl-phenyl)-6-propylaminomethyl-thieno[2,3-d]pyrimidin-2-ylamine]: less than 10 µM. For the molecule `Nc1nc(-c2ccc(Cl)cc2Cl)c2cc(C(O)(c3ccccc3)c3ccccc3)sc2n1` [Example 5, [2-Amino-4-(2,4-dichloro-phenyl)-thieno[2,3-d]pyrimidin-6-yl]-diphenyl-methanol], the IC50 was more than 10 µM. Same read-out and setting: the result for `CCN(CC)CCOc1cc(-c2nc(N)nc3sc(-c4cc(C)n[nH]4)cc23)c(Cl)cc1Cl` [Example 35, 4-[2,4-dicholoro-5-(2-diethylamino-ethoxy)-phenyl]-6-(5-methyl-2H-pyrazol-3-yl)-thieno[2,3-d]pyrimidine-2-ylamine] reads less than 10 µM; that for `Nc1nc(-c2ccc(Cl)cc2Cl)c2cc(C(=O)c3ccccc3)sc2n1` [Example 9, [2-Amino-4-(2,4-dichloro-phenyl)-thieno[2,3-d]pyrimidine-6-yl]-phenyl-methanone], less than 10 µM. The same measure, in the same setting: the same measure for `CCN(CC)CCOc1cc(-c2nc(N)nc3sc(CO)cc23)c(Cl)cc1Cl` [Example 32, {2-amino-4-[2,4-dichloro-5-(2-diethylamino-ethoxy)-phenyl]-thieno[2,3-d]pyrimidin-6-yl}-methanol]: less than 10 µM; for `CCN(CC)CCOc1cc(-c2nc(N)nc3sc(C#N)cc23)c(Cl)cc1Cl` [Example 29, 2-Amino-4-[2,4-dichloro-5-(diethylamino-ethoxy)-phenyl]-thieno[2,3-d]pyrimidine-6-carbonitrile]: less than 10 µM; for `Nc1nc(-c2ccc(Cl)cc2Cl)c2cc(C(=O)O)sc2n1` [Example 1, 2-Amino-4-(2,4-dichloro-phenyl)-thieno[2,3-d]pyrimidine-6-carboxylic acid]: less than 10 µM. Same read-out and setting: the result for `Cc1ccc(-c2nc(N)nc3sc(C4=NCCN4)cc23)c(C)c1` [Example 11, 6-(4,5-Dihydro-1H-imidazol-2-yl)-4-(2,4-dimethyl-phenyl)-thieno[2,3-d]pyrimidin-2-ylamine] reads less than 10 µM. Regarding `CCN(CC)CCOc1cc(-c2nc(N)nc3sc(-c4nn[nH]n4)cc23)c(Cl)cc1Cl` [Example 40, 4-[2,4-Dichloro-5-(2-diethylamino-ethoxy)-phenyl]-6-(2H-tetrazol-5-yl)-thieno[2,3-d]pyrimidin-2-ylamine], the IC50 was less than 10 µM. On the same count and under the same terms, the result for `Cc1ccc(-c2nc(N)nc3sc(C#N)cc23)c(C)c1` [Example 7, 2-Amino-4-(2,4-dimethylphenyl)-thieno[2,3-d]pyrimidine-6-carbonitrile] reads less than 10 µM; that for `Cc1ccc(-c2nc(N)nc3sc(C(=O)O)cc23)c(C)c1` [Example 2, 2-Amino-4-(2,4-dimethyl-phenyl)-thieno[2,3-d]pyrimidine-6-carboxylic acid], more than 10 µM. On the same count and under the same terms, the same measure for `CCN(CC)CCOc1cc(-c2nc(N)nc3sc(C=O)cc23)c(Cl)cc1Cl` [Example 33, 2-amino-4-[2,4-dicholoro-5-(2-diethylamino-ethoxy)-phenyl]thieno[2,3-d]pyrimidine-6-carbaldehyde]: less than 10 µM; for `CCN(CC)CCOc1cc(-c2nc(N)nc3sc(-c4n[nH]c(N)n4)cc23)c(Cl)cc1Cl` [Example 39, 6-(5-Amino-1H-[1,2,4]triazol-3-yl)-4-[2,4-dichloro-5-(2-diethylamino-ethoxy)-phenyl]-thieno[2,3-d]pyrimidin-2-ylamine]: less than 10 µM; for `Nc1nc(-c2ccc(Cl)cc2Cl)c2cc(-c3ccc[nH]3)sc2n1` [Example 21, 4-(2,4-Dichloro-phenyl)-6-(1H-pyrrol-2-yl)-thieno[2,3-d]pyrimidin-2-ylamine]: less than 10 µM.

(Values after patent publication US20090069336A1, “PYRIMIDOTHIOPHENE COMPOUNDS” (VERNALIS (CAMBRIDGE) LIMITED., priority 2004, published 2009).)
